In patent US20230201426A1, “GEL COMPOSITION AND PRODUCTION METHOD THEREFOR, AND THREE-DIMENSIONAL TISSUE BODY AND PRODUCTION METHOD THEREFOR” (TOPPAN INC., priority 2020, published 2023):

Test system: human mammary gland cancer cells (MDA-MB-231)
Test: Viability of cells cultured after mixing the cell suspension with the Pt^2+ solution alone
Format: cell-based
Conditions: final concentration of Pt^2+ 0.05 mM to 0.5 mM

For `[Cl][Pt-2]([Cl])([Cl])[Cl].[K+].[K+]` [Pt^2+ solution, Potassium tetrachloroplatinate(II) (K2PtCl4)], which cytotoxicity is on record?
The cytotoxicity was “significant cytotoxicity was not recognized”.
